Data reported in ChEMBL document CHEMBL1145685, “In vitro and in vivo antiplasmodial activity of cryptolepine and related alkaloids from Cryptolepis sanguinolenta” (J Nat Prod, 1997).
Values after ≈ are worked out from the molar mass of the structure shown.

What was measured:
Plasmodium berghei [1] = assay: Antimalarial activity as reduced parasitaemia against Plasmodium berghei infected Swiss albino mice (Mus musculus) at 50 mg/kg/day peroral dose for 4 days; type: functional; set-up: scale not given: the % may be the effect or the level left; details: route oral
Plasmodium yoelii [2] = assay: Antimalarial activity as reduced parasitaemia against Plasmodium berghei yoelii infected Swiss albino mice (Mus musculus) at 50 mg/kg/day peroral dose for 4 days; type: functional; set-up: scale not given: the % may be the effect or the level left; details: route oral
Plasmodium falciparum [3] = assay: Antiplasmodial activity against chloroquine-sensitive Plasmodium falciparum D6 infected human erythrocytes by [3H]hypoxanthine uptake; type: functional, organism-based
Plasmodium falciparum [4] = assay: Antiplasmodial activity against Plasmodium falciparum K1 infected human erythrocytes by [3H]hypoxanthine uptake; type: functional, organism-based
Plasmodium falciparum [5] = assay: Antiplasmodial activity against chloroquine-resistant Plasmodium falciparum W2 infected human erythrocytes by [3H]hypoxanthine uptake; type: functional, organism-based
Plasmodium berghei [6] = assay: Antimalarial activity as reduced parasitaemia against Plasmodium berghei infected Swiss albino mice (Mus musculus) at 5 mg/kg/day peroral dose for 4 days; type: functional; set-up: scale not given: the % may be the effect or the level left; details: route oral
Plasmodium yoelii [7] = assay: Antimalarial activity as reduced parasitaemia against Plasmodium berghei yoelii infected Swiss albino mice (Mus musculus) at 5 mg/kg/day peroral dose for 4 days; type: functional; set-up: scale not given: the % may be the effect or the level left; details: route oral

Structure (SMILES) | Activity (Plasmodium berghei [1]) [%] | Activity (Plasmodium yoelii [2]) [%] | IC50 (Plasmodium falciparum [3]) [µg/mL] | IC50 (Plasmodium falciparum [4]) [µg/mL] | IC50 (Plasmodium falciparum [5]) [µg/mL] | Activity (Plasmodium berghei [6]) [%] | Activity (Plasmodium yoelii [7]) [%]
C[n+]1c2ccccc2cc2[n-]c3ccccc3c21 [CRYPTOLEPINE] | 45.4 | 13.7 | 0.027 (≈ 0.116 µM) | 0.033 (≈ 0.142 µM) | 0.041 (≈ 0.177 µM) |  | 
C[n+]1c2ccccc2cc2[n-]c3ccccc3c21.Cl [CRYPTOLEPINE HYDROCHLORIDE] | 15.6 | 10.8 | 0.041 | 0.062 | 0.052 |  | 
c1ccc2nc3c(cc2c1)[nH]c1ccccc13 [QUINDOLINE] | 48.2 | 42.1 | 0.063 (≈ 0.289 µM) | 0.087 (≈ 0.399 µM) | 0.108 (≈ 0.495 µM) |  | 
Cn1c2c3ccccc3nc-2c(O)c2ccccc21 [HYDROXYCRYPTOLEPINE] | 43.2 |  | 0.031 (≈ 0.125 µM) | 0.045 (≈ 0.181 µM) | 0.059 (≈ 0.238 µM) |  | 
OC(c1cc(C(F)(F)F)nc2c(C(F)(F)F)cccc12)C1CCCCN1 (stereo unspecified) [MEFLOQUINE] |  |  | 0.0063 (≈ 0.0167 µM) |  | 0.0051 (≈ 0.0135 µM) |  | 
C[C@@H]1CC[C@H]2[C@@H](C)C(=O)O[C@@H]3O[C@@]4(C)CC[C@@H]1[C@]32OO4 [ARTEMISININ] |  |  | 0.0025 (≈ 0.00885 µM) | 0.0033 (≈ 0.0117 µM) | 0.0027 (≈ 0.00956 µM) |  | 
Cn1c2nc3ccccc3c-2cc2ccccc21 [NEOCRYPTOLEPINE] |  |  | 0.035 (≈ 0.151 µM) | 0.051 (≈ 0.22 µM) | 0.065 (≈ 0.28 µM) |  | 
CCN(CC)CCCC(C)Nc1ccnc2cc(Cl)ccc12 (stereo unspecified) [CHLOROQUINE] |  |  |  |  |  | 2.2 | 1.65
C=C[C@H]1CN2CC[C@H]1C[C@H]2[C@H](O)c1ccnc2ccc(OC)cc12 [QUININE] |  |  | 0.0176 (≈ 0.0542 µM) | 0.0352 (≈ 0.108 µM) |  |  | 
